Values of other authors as cited in US12390412B2, “Hydroglycolic cosmetic composition with a high active content” (L'OREAL, priority 2020, dated 2025).

Details: pH of the composition about 3.0 to about 4.0, more particularly about 3.5

ascorbic acid remains in a protonated, uncharged form: greater than 82%
SMILES: O=C1O[C@H]([C@@H](O)CO)C(O)=C1O [ascorbic acid]
